Assay results taken from patent US8569344B2, “N-piperidinyl acetamide derivatives as calcium channel blockers” (Zalicus Pharmaceuticals Ltd., priority 2008, dated 2013).
Read-outs that look alike come from different tables or passages of the source.

Assays:
[1] = biological target: T1, human α1G T-type channels (Homo sapiens, UniProt O43497); assay: T-type calcium channel block, whole cell patch clamp in HEK cells (α1G); assay type: cell-based
T1 construct: expressed in transfected cells; host or cells: HEK 293

[2] = biological target: T2, human α1H T-type channels (Homo sapiens, UniProt O95180); assay: T-type calcium channel block, whole cell patch clamp in HEK cells (α1H); assay type: cell-based
T2 construct: expressed in transfected cells; host or cells: HEK 293
Protocol: T-type calcium channel blocking activity was assayed in human embryonic kidney cells, HEK 293, stably transfected with the T-type calcium channel subunits. Briefly, cells were cultured in Dulbecco's modified eagle medium (DMEM) supplemented with 10% fetal bovine serum, 200 U/ml penicillin and 0.2 mg/ml streptomycin at 37° C. with 5% CO2. At 85% confluency cells were split with 0.25% trypsin/1 mM EDTA and plated at 10% confluency on glass coverslips. […] Fresh DMEM was supplied and the cells transferred to 28° C./5% CO2. Cells were incubated for 1 to 2 days prior to whole cell recording.
Standard patch-clamp techniques were employed to identify blockers of T-type currents. Briefly, previously described HEK cell lines stably expressing human α1G, α1H and α1I T-type channels were used for all the recordings (passage #: 4-20, 37° C., 5% CO2). Whole cell patch clamp experiments were performed using an Axopatch 200B amplifier (Axon Instruments, Burlingame, Calif.) linked to a personal computer equipped with pCLAMP software. Data were analyzed using Clampfit (Axon Instruments) and SigmaPlot 4.0 (Jandel Scientific). To obtain T-type currents, plastic dishes containing semi-confluent cells were positioned on the stage of a ZEISS AXIOVERT S100 microscope after replacing the culture medium with external solution (see below). Whole-cell patches were obtained using pipettes (borosilicate glass with filament, O.D.: 1.5 mm, I.D.: 0.86 mm, 10 cm length), fabricated on a SUTTER P-97 puller with resistance values of ˜5 MΩ (see below for internal solution).
In the non-inactivating protocol, the holding potential is set at −110 mV and with a pre-pulse at −100 mV for 1 second prior to the test pulse at −40 mV for 50 ms.
Test compounds were dissolved in external solution, 0.1-0.01% DMSO. After ˜10 min rest, they were applied by gravity close to the cell using a WPI microfil tubing. The “non-inactivated” pre-pulse was used to examine the resting block of a compound. The “inactivated” protocol was employed to study voltage-dependent block. […] Values are shown in μM and values above 10 μM are simply represented as 10 μM.

[3] = HEK cells, patch clamp, mainly non-inactivated protocol, values above 10 μM shown as 10 μM, below 0.30 μM shown as 0.30 μM, read-out: T-type Calcium Channel Block α1G IC50
[4] = HEK cells, patch clamp, mainly non-inactivated protocol, values above 10 μM shown as 10 μM, read-out: T-type Calcium Channel Block α1H IC50

T2 sequence (O95180 whole entry): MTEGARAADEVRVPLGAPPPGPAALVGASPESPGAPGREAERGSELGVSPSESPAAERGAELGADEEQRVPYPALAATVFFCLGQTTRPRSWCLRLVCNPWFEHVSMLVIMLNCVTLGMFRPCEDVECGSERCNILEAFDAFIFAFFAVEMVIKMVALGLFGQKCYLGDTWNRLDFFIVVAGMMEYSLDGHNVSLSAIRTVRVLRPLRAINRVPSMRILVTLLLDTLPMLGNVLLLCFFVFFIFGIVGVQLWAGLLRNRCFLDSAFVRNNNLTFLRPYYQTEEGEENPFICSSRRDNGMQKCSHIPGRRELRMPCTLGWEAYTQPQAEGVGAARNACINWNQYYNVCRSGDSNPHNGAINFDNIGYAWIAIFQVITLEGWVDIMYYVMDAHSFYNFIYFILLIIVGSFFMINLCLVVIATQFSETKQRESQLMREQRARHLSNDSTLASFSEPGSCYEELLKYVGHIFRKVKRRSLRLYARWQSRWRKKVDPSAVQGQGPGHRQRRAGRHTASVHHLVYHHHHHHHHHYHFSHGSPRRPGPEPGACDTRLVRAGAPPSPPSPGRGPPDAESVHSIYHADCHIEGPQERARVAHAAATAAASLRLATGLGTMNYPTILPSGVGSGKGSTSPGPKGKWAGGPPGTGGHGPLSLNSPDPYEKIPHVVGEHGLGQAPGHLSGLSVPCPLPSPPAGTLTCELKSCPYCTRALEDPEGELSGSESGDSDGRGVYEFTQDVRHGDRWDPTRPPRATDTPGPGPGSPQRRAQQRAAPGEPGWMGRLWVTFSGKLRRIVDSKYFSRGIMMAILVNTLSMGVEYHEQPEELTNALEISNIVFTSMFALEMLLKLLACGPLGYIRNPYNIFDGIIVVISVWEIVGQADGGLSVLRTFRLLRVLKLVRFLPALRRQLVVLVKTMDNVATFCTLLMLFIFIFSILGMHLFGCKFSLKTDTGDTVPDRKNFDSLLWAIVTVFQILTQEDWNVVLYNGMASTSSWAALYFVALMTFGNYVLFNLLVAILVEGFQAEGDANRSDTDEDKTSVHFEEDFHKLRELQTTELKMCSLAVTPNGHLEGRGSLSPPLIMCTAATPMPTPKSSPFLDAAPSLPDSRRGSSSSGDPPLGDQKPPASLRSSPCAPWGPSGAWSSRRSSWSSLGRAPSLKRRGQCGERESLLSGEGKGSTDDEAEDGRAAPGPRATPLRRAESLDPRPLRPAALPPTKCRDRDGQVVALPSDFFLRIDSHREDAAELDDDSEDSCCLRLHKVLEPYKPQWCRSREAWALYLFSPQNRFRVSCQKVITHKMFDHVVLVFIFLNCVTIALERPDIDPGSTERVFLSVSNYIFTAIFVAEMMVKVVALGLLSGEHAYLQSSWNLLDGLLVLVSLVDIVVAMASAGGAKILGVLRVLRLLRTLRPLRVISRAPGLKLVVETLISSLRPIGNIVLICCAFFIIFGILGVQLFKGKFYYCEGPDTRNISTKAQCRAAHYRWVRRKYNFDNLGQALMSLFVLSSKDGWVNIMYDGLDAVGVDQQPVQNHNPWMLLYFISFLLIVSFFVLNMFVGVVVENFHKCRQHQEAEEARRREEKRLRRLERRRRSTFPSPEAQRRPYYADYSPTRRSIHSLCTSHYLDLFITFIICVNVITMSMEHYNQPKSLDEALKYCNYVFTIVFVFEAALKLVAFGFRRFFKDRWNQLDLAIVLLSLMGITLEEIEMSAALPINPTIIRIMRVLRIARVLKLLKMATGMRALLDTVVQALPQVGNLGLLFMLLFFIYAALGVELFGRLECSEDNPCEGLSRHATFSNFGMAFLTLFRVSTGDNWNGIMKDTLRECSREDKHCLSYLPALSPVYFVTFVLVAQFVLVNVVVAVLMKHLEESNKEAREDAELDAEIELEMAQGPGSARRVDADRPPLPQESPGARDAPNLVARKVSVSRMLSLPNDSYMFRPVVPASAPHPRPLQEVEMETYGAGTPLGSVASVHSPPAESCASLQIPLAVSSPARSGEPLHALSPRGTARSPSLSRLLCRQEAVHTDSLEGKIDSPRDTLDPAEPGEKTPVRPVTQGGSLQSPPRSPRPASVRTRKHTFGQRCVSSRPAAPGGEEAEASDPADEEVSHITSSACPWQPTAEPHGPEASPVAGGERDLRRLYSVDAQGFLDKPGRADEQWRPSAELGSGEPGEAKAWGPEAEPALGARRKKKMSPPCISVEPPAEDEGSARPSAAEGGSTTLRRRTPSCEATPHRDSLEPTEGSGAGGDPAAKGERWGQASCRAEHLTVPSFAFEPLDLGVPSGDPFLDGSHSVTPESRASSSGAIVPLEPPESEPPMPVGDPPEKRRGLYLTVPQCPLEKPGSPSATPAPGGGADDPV
T1 sequence (O43497 whole entry): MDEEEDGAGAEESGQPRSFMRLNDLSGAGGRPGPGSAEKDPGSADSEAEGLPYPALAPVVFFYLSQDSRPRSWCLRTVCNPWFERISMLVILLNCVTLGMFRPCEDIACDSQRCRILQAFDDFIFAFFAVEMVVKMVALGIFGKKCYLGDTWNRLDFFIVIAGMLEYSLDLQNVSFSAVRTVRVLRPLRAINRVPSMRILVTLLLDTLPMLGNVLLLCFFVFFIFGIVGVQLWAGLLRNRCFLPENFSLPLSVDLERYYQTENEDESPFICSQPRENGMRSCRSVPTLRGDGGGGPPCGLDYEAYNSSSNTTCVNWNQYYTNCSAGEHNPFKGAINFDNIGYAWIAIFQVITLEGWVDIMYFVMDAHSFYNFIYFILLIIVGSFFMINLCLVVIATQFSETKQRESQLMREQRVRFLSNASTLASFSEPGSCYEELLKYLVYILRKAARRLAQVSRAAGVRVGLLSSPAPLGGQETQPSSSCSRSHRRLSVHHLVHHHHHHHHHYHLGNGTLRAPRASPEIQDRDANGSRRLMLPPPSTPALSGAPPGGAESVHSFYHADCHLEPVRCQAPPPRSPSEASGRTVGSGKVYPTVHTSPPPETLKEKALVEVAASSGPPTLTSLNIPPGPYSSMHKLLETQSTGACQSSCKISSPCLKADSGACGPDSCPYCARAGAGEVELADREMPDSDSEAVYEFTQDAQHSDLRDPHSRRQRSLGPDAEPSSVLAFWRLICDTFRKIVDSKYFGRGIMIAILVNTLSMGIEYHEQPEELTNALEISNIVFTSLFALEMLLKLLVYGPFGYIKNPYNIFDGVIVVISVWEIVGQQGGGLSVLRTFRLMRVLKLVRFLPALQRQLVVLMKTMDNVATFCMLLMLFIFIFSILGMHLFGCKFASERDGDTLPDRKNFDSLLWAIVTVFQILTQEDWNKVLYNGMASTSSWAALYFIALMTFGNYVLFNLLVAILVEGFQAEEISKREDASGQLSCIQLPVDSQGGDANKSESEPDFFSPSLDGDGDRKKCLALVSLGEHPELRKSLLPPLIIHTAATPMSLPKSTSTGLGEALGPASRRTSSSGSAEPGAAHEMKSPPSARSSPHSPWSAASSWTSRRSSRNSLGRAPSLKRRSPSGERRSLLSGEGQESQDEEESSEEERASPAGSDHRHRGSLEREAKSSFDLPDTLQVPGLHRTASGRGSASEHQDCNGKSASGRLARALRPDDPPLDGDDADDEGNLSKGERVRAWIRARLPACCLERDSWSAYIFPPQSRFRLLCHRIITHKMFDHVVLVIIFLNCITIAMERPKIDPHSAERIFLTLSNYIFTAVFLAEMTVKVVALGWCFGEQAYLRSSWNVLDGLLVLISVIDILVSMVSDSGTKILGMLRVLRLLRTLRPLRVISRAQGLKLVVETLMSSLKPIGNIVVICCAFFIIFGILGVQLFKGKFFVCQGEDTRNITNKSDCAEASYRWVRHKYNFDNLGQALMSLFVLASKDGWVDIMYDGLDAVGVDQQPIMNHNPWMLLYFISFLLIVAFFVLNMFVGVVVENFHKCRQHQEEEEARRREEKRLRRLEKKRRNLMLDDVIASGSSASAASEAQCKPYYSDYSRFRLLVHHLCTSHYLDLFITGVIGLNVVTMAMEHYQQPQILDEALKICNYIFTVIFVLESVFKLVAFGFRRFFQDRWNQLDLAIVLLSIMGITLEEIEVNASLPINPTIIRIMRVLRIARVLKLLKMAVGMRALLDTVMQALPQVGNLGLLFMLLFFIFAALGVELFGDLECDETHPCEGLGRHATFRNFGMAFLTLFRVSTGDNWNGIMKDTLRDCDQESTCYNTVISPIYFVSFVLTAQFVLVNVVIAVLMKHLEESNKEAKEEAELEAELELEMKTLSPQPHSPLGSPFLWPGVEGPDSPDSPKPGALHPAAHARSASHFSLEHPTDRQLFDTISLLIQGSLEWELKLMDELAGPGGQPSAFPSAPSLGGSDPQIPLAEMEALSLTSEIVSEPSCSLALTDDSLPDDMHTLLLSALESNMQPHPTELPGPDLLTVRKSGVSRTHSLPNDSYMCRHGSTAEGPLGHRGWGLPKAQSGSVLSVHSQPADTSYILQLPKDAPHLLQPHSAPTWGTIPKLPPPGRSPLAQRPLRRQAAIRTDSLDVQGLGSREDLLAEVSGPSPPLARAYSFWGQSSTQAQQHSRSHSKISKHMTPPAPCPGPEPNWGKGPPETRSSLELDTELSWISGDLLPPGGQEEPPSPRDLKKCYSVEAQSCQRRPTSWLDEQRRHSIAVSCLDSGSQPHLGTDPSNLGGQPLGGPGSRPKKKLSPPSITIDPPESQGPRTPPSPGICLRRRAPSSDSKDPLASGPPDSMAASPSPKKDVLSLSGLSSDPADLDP

SMILES	IC50 [1, 3] [nM]	IC50 [2, 4] [nM]	IC50 [1] [nM]	IC50 [2] [nM]
CC(C)(NC(=O)CN1CCC(CNC(=O)c2cccc(C(F)(F)F)c2)CC1)C(F)(F)F [Compound 458, N-((1-(2-oxo-2-(1,1,1-trifluoro-2-methylpropan-2-ylamino)ethyl)piperidin-4-yl)methyl)-3-(trifluoromethyl)benzamide]	< 300	40		
O=C(NCC1CCN(CCNS(=O)(=O)C(F)(F)F)CC1)c1cc(F)cc(Cl)c1 [Compound 329, 3-chloro-5-fluoro-N-((1-(2-(trifluoromethylsulfonamido)ethyl)piperidin-4-yl)methyl)benzamide]	3240	4050		
CC(C)(C(=O)NCCN1CCC(CNC(=O)c2cc(C(F)(F)F)cc(C(F)(F)F)c2)CC1)C(F)(F)F [Compound 338, N-((1-(2-(3,3,3-trifluoro-2,2-dimethylpropanamido)ethyl)piperidin-4-yl)methyl)-3,5-bis(trifluoromethyl) benzamide]	< 300	160		
CCOC(=O)NC(CN1CCC(CC(=O)NCc2cc(Cl)cc(Cl)c2)CC1)C(C)(C)C (centres unmarked) [Compound 224, ethyl 1-(4-(2-(3,5-dichlorobenzyl-amino)-2-oxoethyl)piperidin-1-yl)-3,3-dimethylbutan-2-ylcarbamate]	3760	6190		
Cc1cc(C)cc(C(=O)NCC2CCN(CCNS(=O)(=O)C3CC3)CC2)c1 [Compound 233, N-((1-(2-(cyclopropanesulfonamido)ethyl)piperidin-4-yl)methyl)-3,5-dimethylbenzamide]	2040	1380		
O=C(CN1CCC(CNC(=O)c2cccc(Cl)c2)CC1)NC1CCCC1 [Compound 534, 3-chloro-N-((1-(2-(cyclopentylamino)-2-oxoethyl)piperidin-4-yl)methyl) benzamide]	380	420		
CC1(C(=O)NCCN2CCC(CNC(=O)c3cc(C(F)(F)F)cc(C(F)(F)F)c3)CC2)CC1 [Compound 337, N-((1-(2-(1-methylcyclopropanecarboxamido)ethyl)piperidin-4-yl)methyl)-3,5-bis(trifluoromethyl)benzamide]	270	370		
O=C(NCC1CCN(CCNS(=O)(=O)CCCF)CC1)c1cc(F)cc(C(F)(F)F)c1 [Compound 308, 3-fluoro-N-((1-(2-(3-fluoropropylsulfonamido)ethyl)piperidin-4-yl)methyl)-5-(trifluoromethyl)benzamide]	1230	880		
COc1cc(F)cc(C(=O)NCC2CCN(CC(=O)N(C)C3(C)CCC3)CC2)c1 [Compound 584, 3-fluoro-5-methoxy-N-((1-(2-(methyl(1-methylcyclobutyl)amino)-2-oxoethyl)piperidin-4-yl)methyl)benzamide]	< 300	280		
CC(C)(C)NC(=O)CN1CCC(CNC(=O)/C=C/c2cc(F)cc(F)c2)CC1 [Compound 369, (E)-N-((1-(2-(tert-butylamino)-2-oxoethyl)piperidin-4-yl)methyl)-3-(3,5-difluorophenyl)acrylamide]	6910	7010		
CC(C)(C)NC(=O)CN1CCC(CNC(=O)Cc2cc(C(F)(F)F)cc(C(F)(F)F)c2)CC1 [Compound 383, 2-(3,5-bis(trifluoromethyl)phenyl)-N-((1-(2-(tert-butylamino)-2-oxoethyl)piperidin-4-yl)methyl)acetamide]	1220	1350		
CC1(NC(=O)CN2CCC(CNC(=O)c3cccc(Cl)c3)CC2)CCC1 [Compound 481, 3-chloro-N-((1-(2-(1-methylcyclo-butylamino)-2-oxoethyl)piperidin-4-yl)methyl)benzamide]	< 300	250		
CCCNC(=O)N(C)CCN1CCC(CNC(=O)c2cc(F)cc(C(F)(F)F)c2)CC1 [Compound 526, 3-fluoro-N-((1-(2-(1-methyl-3-propylureido)ethyl)piperidin-4-yl)methyl)-5-(trifluoromethyl)benzamide]	> 10000	3240		
O=C(CN1CCC(CNC(=O)c2cc(F)cc(C(F)(F)F)c2)CC1)NC1(C2CCOCC2)CC1 [Compound 561, 3-fluoro-N-((1-(2-oxo-2-(1-(tetrahydro-2H-pyran-4-yl)cyclopropylamino)ethyl)piperidin-4-yl)methyl)-5-(trifluoromethyl) benzamide]	< 300	270		
CS(=O)(=O)NC1(CN2CCC(CNC(=O)c3cc(C(F)(F)F)cc(C(F)(F)F)c3)CC2)CCCC1 [Compound 1, N-((1-((1-(methylsulfonamido)cyclopentyl)methyl)piperidin-4-yl)methyl)-3,5-bis(trifluoromethyl)benzamide]	1010	370		
O=C(NCC1CCN(C(=O)CNC2CCCC2)CC1)c1cc(C(F)(F)F)cc(C(F)(F)F)c1 [Compound 247, N-((1-(2-(cyclopentylamino)acetyl)piperidin-4-yl)methyl)-3,5-bis(trifluoromethyl)benzamide]	< 300	500		
CC(C)(C)OC(=O)NCCN1CCC(CNC(=O)c2cccc(Cl)c2)CC1 [Compound 48, tert-butyl 2-(4-((3-chlorobenzamido)methyl)piperidin-1-yl)ethylcarbamate]	1570	790		
CC.CC(F)CNC(=O)CN1CCC(CNC(=O)c2cc(F)cc(Cl)c2)CC1 (centres unmarked) [Compound 553, 3-chloro-5-fluoro-N-((1-(2-(2-fluoropropylamino)-2-oxoethyl)piperidin-4-yl)methyl)benzamide compound with ethane (1:1)]			2520	1730
CC(C)(C)OC(=O)NC(CN1CCC(CC(=O)NCc2cc(Cl)cc(Cl)c2)CC1)C(C)(C)C (centres unmarked) [Compound 198, tert-butyl 1-(4-(2-(3,5-dichloro-benzylamino)-2-oxoethyl)piperidin-1-yl)-3,3-dimethylbutan-2-ylcarbamate]	400	1300		
O=C(NCC1CCN(C2CN(C(=O)C3(C(F)(F)F)CCC3)C2)CC1)c1cc(F)cc(Cl)c1 [Compound 610, 3-chloro-5-fluoro-N-((1-(1-(1-(trifluoromethyl)cyclobutanecarbonyl)azetidin-3-yl)piperidin-4-yl)methyl) benzamide]		770		
CC(C)(C)C(=O)NCCN1CCC(CNC(=O)c2cc(C(F)(F)F)cc(C(F)(F)F)c2)CC1 [Compound 60, N-((1-(2-pivalamidoethyl)piperidin-4-yl)methyl)-3,5-his(trifluoromethyl)benzamide]		220		
CCC(=O)NCCN1CCC(CNC(=O)c2cc(C(F)(F)F)cc(C(F)(F)F)c2)CC1 [Compound 58, N-((1-(2-propionamidoethyl)piperidin-4-yl)methyl)-3,5-bis(trifluoromethyl) benzamide]		4010		
C[C@H]1CC[C@H](NC(=O)CN2CCC(CNC(=O)c3cc(C(F)(F)F)cc(C(F)(F)F)c3)CC2)CC1 [Compound 97, N-((1-(2-((1r,4r)-4-methylcyclo-hexylamino)-2-oxoethyl)piperidin-4-yl)methyl)-3,5-bis(trifluoromethyl) benzamide]		100		
CC(C)(CN1CCC(CNC(=O)c2cc(F)cc(C(F)(F)F)c2)CC1)NS(=O)(=O)C1CC1 [Compound 8, N-((1-(2-(cyclopropanesulfonamido)-2-methylpropyl)piperidin-4-yl)methyl)-3-fluoro-5-(trifluoromethyl)benzamide]		2420		
CC(C)CS(=O)(=O)NCCN1CCC(CNC(=O)c2cc(C(F)(F)F)cc(C(F)(F)F)c2)CC1 [Compound 27, N-((1-(2-(2-methylpropylsulfonamido)ethyl)piperidin-4-yl)methyl)-3,5-bis(trifluoromethyl)benzamide]		190		
O=C(NCC1CCN(C2CN(C(=O)c3cccc(Br)c3)C2)CC1)c1cc(F)cc(Cl)c1 [Compound 602, N-((1-(1-(3-bromobenzoyl)azetidin-3-yl)piperidin-4-yl)methyl)-3-chloro-5-fluorobenzamide]		2410		
O=C(NCC1CCN(C2CN(C(=O)c3cccc(OC(F)(F)F)c3)C2)CC1)c1cc(F)cc(Cl)c1 [Compound 603, 3-chloro-5-fluoro-N-((1-(1-(3-(trifluoromethoxy)benzoyl)azetidin-3-yl)piperidin-4-yl)methyl)benzamide]		810		
CC1CCCN(C(=O)CN2CCC(CNC(=O)c3cc(C(F)(F)F)cc(C(F)(F)F)c3)CC2)C1 (centres unmarked) [Compound 99, N-((1-(2-(3-methylpiperidin-1-yl)-2-oxoethyl)piperidin-4-yl)methyl)-3,5-bis(trifluoromethyl)benzamide]		210		
